Test results published in US20250114389A1, “NUCLEOSIDES AND NUCLEOTIDES ANALOGS AS ANTIVIRAL AGENTS” (Emory University, priority 2021, published 2025).
Where two headings read alike, the source gives them in different places.

Legend:
[1] = Cytotoxicity in CEM cells; assay type: cell-based, human; conditions: human, CEM lymphoblastoid cells
Procedure: (§1) The toxicity of the compounds was assessed in Vero, human PBM, CEM (human lymphoblastoid), MT-2, and HepG2 cells, as described previously (see Schinazi R. F., Sommadossi J.-P., Saalmann V., Cannon D. L., Xie M.-Y., Hart G. C., Smith G. A. & Hahn E. F. Antimicrob. Agents Chemother. 1990, 34, 1061-67). Cycloheximide was included as positive cytotoxic control, and untreated cells exposed to solvent were included as negative controls. The cytotoxicity IC50 was obtained from the concentration-response curve using the median effective method described previously (see Chou T.-C. & Talalay P. Adv. Enzyme Regul. 1984, 22, 27-55; Belen'kii M. S. & Schinazi R. F. Antiviral Res. 1994, 25, 1-11).

[2] = Cytotoxicity in PBM cells; assay type: cell-based, human; conditions: human
Procedure: as §1

[3] = in vitro; conditions: human
[4] = Cytotoxicity in Huh7 cells; assay type: cell-based; conditions: human
[5] = Single dose range-finding study in Golden Syrian hamsters; assay type: in vivo; conditions: for Notes (clinical observations): hamster, in vivo, ip
Procedure: 3 male Syrian hamsters were injected intraperitoneally with a Compound A starting at 5 mg/kg at time 0 with […] administered every 30 minutes upto a final 80 mg/kg. Clinical observations of toxicity were recorded.

[6] = assay type: in vitro ADME; conditions: 10 μM
Procedure: An aliquot of 450 μL of human, mouse or hamster plasma were exposed to 10 μM of compound and incubated at 37° C. At 0, 5, 15, 30, 60, 90 and 120 min, 50 μL of plasma sample was mixed with 200 μL of ice-cold methanol (70%). 50 μL supernatant was dried and reconstituted in 100 μL H2O. Propantheline bromide was used as positive control. The supernatant was then subjected to LC-MS analysis (LC-MS condition: Instrument: Thermo TSQ Quantiva. Column: Kinetex […] (50×2.1 mm, […]). LC buffers: A): 0.1% formic acid, and B): acetonitrile. MRM methods: (269.2-112 positive), Indinavir (IS, 614.4-421.2 positive, IS)). The stability results are shown in FIGS. 2-4 (human plasma, mouse plasma and hamster plasma, respectively). Compound A is stable in human and mouse plasma up to 2 hours and stable up to […] in hamster plasma. Compound 23 was converted to compound A in hamster plasma in less than 5 min.

[7] = test system: SARS-CoV-2; assay: Anti-SARS-CoV-2 activity in Calu3 cells (virus yield inhibition); assay type: cell-based; conditions: Severe acute respiratory syndrome coronavirus 2, Calu-3, Table 1
[8] = Multi-dose range-finding study in Golden Syrian hamsters; conditions: hamster, in vivo, po, 30 mg/kg
Procedure: Multi-dose range-finding study in Golden Syrian Hamsters: 3 male Syrian hamsters were given 30 mg/kg of compound A by oral gavage daily for 7 days. The body weight of each of the individual hamsters during the nucleoside analog treatment was measured (grams per day) over a 7 day period. […] The body temperature of the hamsters was also measured over the course of the treatment in two of the hamsters (FIG. 9, Rodent 1 and Rodent 2). The third hamster lost the chip, and, despite re-chipping, temperatures were still not recording.
Daily observations of the hamsters were taken, particularly with respect to their ability to eat and drink normally, and other behavior and activity ratings (B.A.R.), and the observations are summarized below in Table 10.

[9] = test system: SARS-CoV-2; assay: Anti-SARS-CoV-2 activity in HAE-HBO (apical-out lung organoids); assay type: cell-based; conditions: Severe acute respiratory syndrome coronavirus 2
[10] = Non-compartmental PK analysis of IV and oral Compound A in mice; assay type: in vivo; conditions: for half-life: read-out: mean terminal t1/2 (converted)
Procedure: A study was performed to measure the concentration of Compound A ([…]) over time (hours) when administered orally at a concentration of 30 mg/kg (FIG. 8A) and intravenously at a concentration of 15 mg/kg (FIG. 8B).

[11] = test system: Omicron; assay: Anti-Omicron activity in Calu-3; assay type: cell-based, SARS-CoV-2; conditions: Severe acute respiratory syndrome coronavirus 2
[12] = in vitro; conditions: human, Caco-2
[13] = test system: SARS-CoV-2; assay: Anti-SARS-CoV-2 activity in HAE-ALI culture; assay type: cell-based; conditions: Severe acute respiratory syndrome coronavirus 2; HAE air-liquid interface
[14] = test system: SARS-CoV-2; assay: Anti-SARS-CoV-2 activity in Calu3 ALI culture; assay type: cell-based; conditions: Severe acute respiratory syndrome coronavirus 2, Calu-3; Calu3 air-liquid interface
[15] = Cytotoxicity in Vero cells; conditions: African green monkey, Vero kidney cells
[16] = test system: SARS-CoV-2; assay: Anti-SARS-CoV-2 activity in Caco2 cells (virus yield inhibition)

SMILES: N#C[C@@]1(n2ccc(N)nc2=O)O[C@H](CO)[C@@H](O)[C@H]1O [Compound A, (2R,3R,4S,5R)-2-(4-amino-2-oxopyrimidin-1(2H)-yl)-3,4-dihydroxy-5-(hydroxymethyl)-tetrahydrofuran-2-carbonitrile]
- CC50 [1]: 99000 nM
- CC50 [2]: 92000 nM
- CC50 [3]: > 100000 nM
- CC50 [4]: > 100000 nM
- signs of toxicity ([5]; IP injection, total dose of 80 mg/kg, hamsters): no signs of toxicity
- Notes (clinical observations) ([5]; 55 mg/kg): B.A.R.* No sign of discomfort
- Notes (clinical observations) ([5]; 80 mg/kg): B.A.R.* No sign of discomfort
- stable in plasma up to ([6]; hamster): up to 24 h
- stable in plasma up to ([6]; human): up to 2 hours
- stable in plasma up to ([6]; mouse): up to 2 hours
- EC50 [7]: 20 nM
- EC90 [7]: 200 nM
- Daily Observations [8]: B.A.R. Eating
- ability to eat and drink [8]: able to eat and drink normally
- EC50 [9]: 300 nM
- EC90 [9]: 500 nM
- oral bioavailability [10]: excellent oral bioavailability
- plasma concentration at start of decline ([10]; IV 15 mg/kg, FIG. 8B): around 10 μg/ml
- Mean input time (MIT) into plasma of oral dose ([10]; MRTPO−MRTIV): 1.05 h
- Ka ([10]; approximation assuming 1-compartment PK, ~1/MIT): ~0.95 h⁻¹
- half-life ([10]; mouse, plasma, 15 mg/kg, IV dose): 2.23 h
- half-life ([10]; mouse, plasma, 30 mg/kg, oral dose): 2.47 h
- concentration at 7 h ([10]; mouse, plasma, IV 15 mg/kg, over the course of 7 hours, FIG. 8B, read-out: plasma concentration after 7 hours): ~100 ng/mL
- bioavailability ([10]; mouse, plasma, oral 30 mg/kg vs IV 15 mg/kg, excluding PO_m3): 99.5%
- AUC ([10]; mouse, plasma, oral 30 mg/kg, excluding PO_m3 (possible outlier), read-out: mean oral AUCPO): 28300 ng·h/mL
- mean oral CL ([10]; oral 30 mg/kg, excluding PO_m3): 1.06 L/hr per kg
- MRTPO ([10]; oral dose): 2.65 h
- EC50 [11]: 1800 to 2100 nM
- EC90 [11]: 4500 to 6200 nM
- CC50 [12]: > 100000 nM
- EC50 [13]: 400 nM
- EC90 [13]: 1600 nM
- EC50 [14]: 1300 nM
- EC90 [14]: 7400 nM
- CC50 [15]: > 100000 nM
- EC50 ([16]; Severe acute respiratory syndrome coronavirus 2, Caco-2, read-out: Anti-SARS-CoV-2 Activity (Caco2) EC50): 300 nM
- EC90 ([16]; Severe acute respiratory syndrome coronavirus 2, Caco-2, read-out: Anti-SARS-CoV-2 Activity (Caco2) EC90): 1200 nM
